Patent US8759535B2, “Substituted fused imidazole derivatives, pharmaceutical compositions, and methods of use thereof” (High Point Pharmaceuticals, LLC, priority 2010, dated 2014)
Structures can show the parent of a compound that is named as a salt.

These molecules were tested on HMOX1 (assay: HMOX1 Protein Assay (immunostaining of HO-1 in NHLF cells, GE InCell 1000)). Details: Homo sapiens, fold change above DMSO treated cells, 3 μM compound (asterisk), 16 h.
Type: cell-based
Method: Cell Culture. Normal Human Fibroblast (NHLF), were obtained from Lonza. Cultures of cells were maintained in Fibroblast Growth Medium (FGM-2) medium supplemented with 2% fetal bovine serum (FBS), Fibroblast Growth Factor (hFGF-B) 0.5 mL, Insulin 0.5 mL, gentamicin/amphotericin-B 0.5 mL at 37° C. in a humidified atmosphere of 5% CO2. Cells were grown to 80% confluence before treating.
HMOX1 Protein Assay. NHLF cells were grown to 80% confluency and harvested by washing once with HEPES and then trypsinized. Equal numbers (2×10^3 cells per well) of NHLF cells were plated in 384 well optilux tissue culture (BD) plates. Cells were incubated overnight in FGM-2 medium prior to exposure to compound. Cells were treated with either vehicle (DMSO) or compound (dissolved in vehicle) for 16 h. Cells were washed 2× with 1×PBS and fixed with 4% Paraformaldyhyde for 15 min. The fixed cells were then permeabalized with 0.1% Triton X-100 and blocked with 5% BSA in 1×PBS 0.05% Tween-20 for 15 min. HO-1 antibody (abcam) was used for immunostaining at 1:300 dilution in 1% BSA in 1×PBS for 1 hour. Cells were washed 2× with 1×PBS and secondary antibody goat anti-mouse Alexa 488 1:400 dilution (Invitrogen); Hoechst 1:2000 (Invitrogen) in 1% BSA in 1×PBS for 1 hour. Plate was washed 5× with 1×PBS and read at Hoechst Ex.360 […]; Alexa 488 Ex.480 Em. 535 using GE InCell 1000. Results analyzed using GE InCell Analyzer software. Heme oxygenase data represents the fold change above DMSO treated cells.
In general, the fold induction data are reported for 5 μM concentration (i.e., μ-moles of compound to total volume, where the solvent is about 99.2% media and 0.8% DMSO). In some instances, the reported data are for 3 μM concentration, which are indicated by an asterisk (*).

SMILES | fold induction at 3 µM
Cn1c(Nc2nc3ccc(C(F)(F)F)cc3s2)nc2cc(C(=O)NCCN3CCOCC3)ccc21 [Example 341, 1-Methyl-2-(6-trifluoromethyl-benzothiazol-2-ylamino)-1H-benzoimidazole-5-carboxylic acid (2-morpholin-4-yl-ethyl)-amide] | 32.8
Cn1c(Nc2nc3ccc(Cl)cc3s2)nc2cc(C(=O)NCCOCCN)ccc21 [Example 269, 2-(6-Chloro-benzothiazol-2-ylamino)-1-methyl-1H-benzoimidazole-5-carboxylic acid [2-(2-amino-ethoxy)-ethyl]-amide] | 19.9
Cn1c(Nc2nc3ccc(Cl)cc3s2)nc2cc(C(=O)NCCN3CCOCC3)ccc21 [Example 340, 2-(6-Chloro-benzothiazol-2-ylamino)-1-methyl-1H-benzoimidazole-5-carboxylic acid (2-morpholin-4-yl-ethyl)-amide] | 14.4
C[C@@H](O)CN1CC[C@@H](NC(=O)c2ccc3c(c2)nc(Nc2nc4ccc(Cl)cc4s2)n3C)C1 [Example 296, 2-(6-Chloro-benzothiazol-2-ylamino)-1-methyl-1H-benzoimidazole-5-carboxylic acid [(R)-1-((R)-2-hydroxy-propyl)-pyrrolidin-3-yl]-amide] | 34.6
Cn1c(Nc2nc3ccc(Cl)cc3s2)nc2cc(C(=O)NCC(=O)N3CC[C@@H](O)C3)ccc21 [Example 400, 2-(6-Chloro-benzothiazol-2-ylamino)-1-methyl-1H-benzoimidazole-5-carboxylic acid [2-((R)-3-hydroxy-pyrrolidin-1-yl)-2-oxo-ethyl]-amide] | 15
C[C@H](O)CNC(=O)c1ccc2c(c1)nc(Nc1nc3ccc(Cl)cc3s1)n2C [Example 204, 2-(6-Chloro-benzothiazol-2-ylamino)-1-methyl-1H-benzoimidazole-5-carboxylic acid ((S)-2-hydroxy-propyl)-amide] | 19.3

Same assay, conditions: Homo sapiens, fold change above DMSO treated cells, 5 μM compound, 16 h

SMILES | fold induction at 5 µM
CCNC(=O)c1ccc2c(c1)nc(Nc1nc3ccc(C(F)(F)F)cc3s1)n2C [Example 26, 1-Methyl-2-(6-trifluoromethyl-benzothiazol-2-ylamino)-1H-benzoimidazole-5-carboxylic acid ethylamide] | 15.5
CN(C)[C@@H]1CCN(C(=O)CNC(=O)c2ccc3c(c2)nc(Nc2nc4ccc(OC(F)(F)F)cc4s2)n3C)C1 [Example 415, 1-Methyl-2-(6-trifluoromethoxy-benzothiazol-2-ylamino)-1H-benzoimidazole-5-carboxylic acid [2-((R)-3-dimethylamino-pyrrolidin-1-yl)-2-oxo-ethyl]-amide] | 74.8
CN1CC[C@H](NC(=O)c2ccc3c(c2)nc(Nc2nc4ccc(Cl)cc4s2)n3C)C1 [Example 317, 2-(6-Chloro-benzothiazol-2-ylamino)-1-methyl-1H-benzoimidazole-5-carboxylic acid ((S)-1-methyl-pyrrolidin-3-yl)amide] | 16.3
Cn1c(Nc2nc3cc(F)ccc3s2)nc2cc(C(=O)O)ccc21 [Example 117, 2-(5-Fluoro-benzothiazol-2-ylamino)-1-methyl-1H-benzimidazole-5-carboxylic acid] | 28.8
Cn1c(Nc2nc3ccc(OC(F)(F)F)cc3s2)nc2cc(C(=O)NCC(=O)O)ccc21 [Example 83, {[1-Methyl-2-(6-trifluoromethoxy-benzothiazol-2-ylamino)-1H-benzoimidazole-5-carbonyl]-amino}-acetic acid] | 1.25
COC(=O)c1ccc2c(c1)nc(Nc1nc3ccc(C(F)(F)F)cc3s1)n2C [Example 23, 1-Methyl-2-(6-trifluoromethyl-benzothiazol-2-ylamino)-1H-benzoimidazole-5-carboxylic acid methyl ester] | 4.11
Cn1c(Nc2nc3ccc(Cl)cc3s2)nc2cc(C(=O)NCC(=O)N3CC[C@H](N)C3)ccc21 [Example 411, 2-(6-Chloro-benzothiazol-2-ylamino)-1-methyl-1H-benzoimidazole-5-carboxylic acid [2-((S)-3-amino-pyrrolidin-1-yl)-2-oxo-ethyl]-amide hydrochloride] | 16
CCn1c(Nc2nc3ccc(Cl)cc3s2)nc2cc(C(=O)NCCOC)ccc21 [Example 177, 2-(6-Chloro-benzothiazol-2-ylamino)-1-ethyl-1H-benzoimidazole-5-carboxylic acid (2-methoxy-ethyl)-amide] | 30.3
Cn1c(Nc2nc3ccc(Cl)cc3s2)nc2cc(C(=O)NCCN)ccc21 [Example 343, 2-(6-Chloro-benzothiazol-2-ylamino)-1-methyl-1H-benzoimidazole-5-carboxylic acid (2-amino-ethyl)-amide hydrochloride] | 21.1
Cn1c(Nc2nc3ccc(Cl)cc3s2)nc2cc(C(=O)NCC(=O)N3CCN(S(C)(=O)=O)CC3)ccc21 [Example 429, 2-(6-Chloro-benzothiazol-2-ylamino)-1-methyl-1H-benzoimidazole-5-carboxylic acid [2-(4-methanesulfonyl-piperazin-1-yl)-2-oxo-ethyl]-amide] | 21.4
COC(=O)c1ccc2c(c1)nc(Nc1nc3cc(F)c(F)cc3s1)n2C [Example 33, 2-(5,6-Difluoro-benzothiazol-2-ylamino)-1-methyl-1H-benzoimidazole-5-carboxylic acid methyl ester] | 11.7
Cn1c(Nc2nc3ccc(OC(F)(F)F)cc3s2)nc2cc(C(=O)NCCOCCCF)ccc21 [Example 247, 1-Methyl-2-(6-trifluoromethoxy-benzothiazol-2-ylamino)-1H-benzoimidazole-5-carboxylic acid [2-(3-fluoro-propoxy)-ethyl]-amide] | 28.3
CCNC(=O)[C@H](C)NC(=O)c1ccc2c(c1)nc(Nc1nc3ccc(OC(F)(F)F)cc3s1)n2C [Example 81, 1-Methyl-2-(6-trifluoromethoxy-benzothiazol-2-ylamino)-1H-benzoimidazole-5-carboxylic acid ((S)-1-ethylcarbamoyl-ethyl)-amide] | 17
Cn1c(Nc2nc3ccc(OC(F)(F)F)cc3s2)nc2cc(C(=O)NCC(=O)N3C[C@H](O)[C@@H](O)C3)ccc21 [Example 407, 1-Methyl-2-(6-trifluoromethoxy-benzothiazol-2-ylamino)-1H-benzoimidazole-5-carboxylic acid [2-((3S,4S)-3,4-dihydroxy-pyrrolidin-1-yl)-2-oxo-ethyl]-amide] | 7.73
CNCC1CCCN(C(=O)CNC(=O)c2ccc3c(c2)nc(Nc2nc4ccc(Cl)cc4s2)n3C)C1 (stereo not drawn) [Example 460, 2-(6-Chloro-benzothiazol-2-ylamino)-1-methyl-1H-benzoimidazole-5-carboxylic acid [2-(3-methylaminomethyl-piperidin-1-yl)-2-oxo-ethyl]-amid hydrochloride] | 27.5
Cn1c(Nc2nc3ccc(Cl)cc3s2)nc2cc(C(=O)NCC(=O)N3CCC(O)C3)ccc21 (stereo not drawn) [Example 399, 2-(6-Chloro-benzothiazol-2-ylamino)-1-methyl-1H-benzoimidazole-5-carboxylic acid [2-(3-hydroxy-pyrrolidin-1-yl)-2-oxo-ethyl]-amide] | 20.8
COC(=O)c1ccc2c(c1)nc(Nc1nc3ccc(Cl)cc3s1)n2C [Example 28, 2-(6-Chloro-benzothiazol-2-ylamino)-1-methyl-1H-benzoimidazole-5-carboxylic acid methyl ester] | 10.1
Cn1c(Nc2nc3ccc(Cl)cc3s2)nc2cc(C(=O)NCCOCCO)ccc21 [Example 235, 2-(6-Chloro-benzothiazol-2-ylamino)-1-methyl-1H-benzoimidazole-5-carboxylic acid [2-(2-hydroxy-ethoxy)-ethyl]-amide] | 37.7
Cn1c(Nc2nc3ccc(OC(F)(F)F)cc3s2)nc2cc(C(=O)NCCN3CCOCC3)c(F)cc21 [Example 59, 6-Fluoro-1-methyl-2-(6-trifluoromethoxy-benzothiazol-2-ylamino)-1H-benzoimidazole-5-carboxylic acid (2-morpholin-4-yl-ethyl)-amide] | 49.8
Cn1c(Nc2nc3ccc(OC(F)(F)F)cc3s2)nc2cc(C(=O)NC(C)(C)C(=O)O)ccc21 [Example 148, 2-Methyl-2-{[1-methyl-2-(6-trifluoromethoxy-benzothiazol-2-ylamino)-1H-benzimidazole-5-carbonyl]-amino}-propionic acid] | 12
Cn1c(Nc2nc3ccc(C(F)(F)F)cc3s2)nc2cc(C(=O)NCCOCCO)ccc21 [Example 236, 1-Methyl-2-(6-trifluoromethyl-benzothiazol-2-ylamino)-1H-benzoimidazole-5-carboxylic acid [2-(2-hydroxy-ethoxy)-ethyl]-amide] | 45.7
